System: 616215-338-R-J1-PDC complex spheroid viability
Assay: Anticancer human tumor 616215-338-R-J1-PDC patient-derived colon adenocarcinoma cell line growth inhibition [POLQ]
Details: for IC50: curve of first compound; for viability, T/C: stronger effect = lower value
Summary of the method: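 PDC + HUVEC + MSC complex spheroids; POLQ inhibitors ± partner drugs; top conc. at/near clinical Cmax, else 10 microM (SN-38 1 microM), half-log dilutions; 37 degrees C, 5% CO2.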

[1] = second compound 0.0316 µM, first compound 0.0316 µM
[2] = second compound 0.0316 µM, first compound 0.1 µM
[3] = second compound 0.0316 µM, first compound 0.316 µM
[4] = second compound 0.0316 µM, first compound 1 µM
[5] = second compound 0.1 µM, first compound 0.0316 µM
[6] = second compound 0.1 µM, first compound 0.1 µM
[7] = second compound 0.1 µM, first compound 0.316 µM
[8] = second compound 0.1 µM, first compound 1 µM
[9] = second compound 0.316 µM, first compound 0.0316 µM
[10] = second compound 0.316 µM, first compound 0.1 µM
[11] = second compound 0.316 µM, first compound 0.316 µM
[12] = second compound 0.316 µM, first compound 1 µM
[13] = second compound 1 µM, first compound 0.0316 µM
[14] = second compound 1 µM, first compound 0.1 µM
[15] = second compound 1 µM, first compound 0.316 µM
[16] = second compound 1 µM, first compound 1 µM
[17] = second compound 3.16 µM, first compound 0.0316 µM
[18] = second compound 3.16 µM, first compound 0.1 µM
[19] = second compound 3.16 µM, first compound 0.316 µM
[20] = second compound 3.16 µM, first compound 1 µM
[21] = second compound 10 µM, first compound 0.0316 µM
[22] = second compound 10 µM, first compound 0.1 µM
[23] = second compound 10 µM, first compound 0.316 µM
[24] = second compound 10 µM, first compound 1 µM
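Further: spheroids exposed to compounds for one week before readout.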
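Wherever viability, T/C is given: percent viability relative to DMSO vehicle wells taken as 100%.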

For CCc1c2c(nc3ccc(O)cc13)-c1cc3c(c(=O)n1C2)COC(=O)[C@]3(O)CC + Nc1ccc(C#CCN(C(=O)Cc2ncc(C(F)(F)F)cc2C(F)(F)F)c2ccc(F)cc2)nn1, the IC50 (second compound 0.0316 µM) was 10.4 nM, the IC50 (second compound 0.1 µM) was 14.8 nM and the IC50 (second compound 0.316 µM) was 18.1 nM. For the same molecule, the IC50 (second compound 1 µM) was 8.73 nM, the IC50 (second compound 3.16 µM) was 8.16 nM and the IC50 (second compound 10 µM) was 7.26 nM. For the same molecule, the viability, T/C (second compound 0.0316 µM, first compound 0.00316 µM) was 82.6%, the viability, T/C (second compound 0.0316 µM, first compound 0.01 µM) was 51.4% and the viability, T/C [1] was 28.6%. The viability, T/C [2] was 23.1%, the viability, T/C [3] was 15.7% and the viability, T/C [4] was 9.67%. For the same molecule, the viability, T/C (second compound 0.1 µM, first compound 0.00316 µM) was 85.5%, the viability, T/C (second compound 0.1 µM, first compound 0.01 µM) was 55.2% and the viability, T/C [5] was 33.7%. For the same molecule, the viability, T/C [6] was 32.2%, the viability, T/C [7] was 15.5% and the viability, T/C [8] was 9.4%. For the same molecule, the viability, T/C (second compound 0.316 µM, first compound 0.00316 µM) was 72.8%, the viability, T/C (second compound 0.316 µM, first compound 0.01 µM) was 71% and the viability, T/C [9] was 30.3%. It also gave a viability, T/C [10] of 28.1%, a viability, T/C [11] of 17.3% and a viability, T/C [12] of 10.2%. The viability, T/C (second compound 1 µM, first compound 0.00316 µM) was 83.8%, the viability, T/C (second compound 1 µM, first compound 0.01 µM) was 37.8% and the viability, T/C [13] was 34%. It also gave a viability, T/C [14] of 28.9%, a viability, T/C [15] of 17% and a viability, T/C [16] of 10.2%. The viability, T/C (second compound 3.16 µM, first compound 0.00316 µM) was 77.6%, the viability, T/C (second compound 3.16 µM, first compound 0.01 µM) was 39.2% and the viability, T/C [17] was 29.3%. The viability, T/C [18] was 28.6%, the viability, T/C [19] was 11.9% and the viability, T/C [20] was 10.9%. It also gave a viability, T/C (second compound 10 µM, first compound 0.00316 µM) of 59.2%, a viability, T/C (second compound 10 µM, first compound 0.01 µM) of 47.8% and a viability, T/C [21] of 28.5%. For the same molecule, the viability, T/C [22] was 22.5%, the viability, T/C [23] was 16.1% and the viability, T/C [24] was 12.8%.
Molecule Nc1ccn(C2OC(CO)C(O)C2(F)F)c(=O)n1 (centres undefined) + Nc1ccc(C#CCN(C(=O)Cc2ncc(C(F)(F)F)cc2C(F)(F)F)c2ccc(F)cc2)nn1 has an IC50 (second compound 0.0316 µM) of under 31.6 nM, an IC50 (second compound 0.1 µM) of under 31.6 nM and an IC50 (second compound 0.316 µM) of under 31.6 nM. It also gave an IC50 (second compound 1 µM) of under 31.6 nM, an IC50 (second compound 3.16 µM) of under 31.6 nM and an IC50 (second compound 10 µM) of under 31.6 nM. The viability, T/C [1] was 22.1%, the viability, T/C [2] was 17.1% and the viability, T/C [3] was 10.8%. The viability, T/C [4] was 10.9%, the viability, T/C (second compound 0.0316 µM, first compound 3.16 µM) was 14.9% and the viability, T/C (second compound 0.0316 µM, first compound 10 µM) was 16.1%. The viability, T/C [5] was 27.7%, the viability, T/C [6] was 15.5% and the viability, T/C [7] was 12.6%. For the same molecule, the viability, T/C [8] was 12.6%, the viability, T/C (second compound 0.1 µM, first compound 3.16 µM) was 12.6% and the viability, T/C (second compound 0.1 µM, first compound 10 µM) was 12.6%. The viability, T/C [9] was 28.6%, the viability, T/C [10] was 24.1% and the viability, T/C [11] was 10.9%. For the same molecule, the viability, T/C [12] was 13.3%, the viability, T/C (second compound 0.316 µM, first compound 3.16 µM) was 12.6% and the viability, T/C (second compound 0.316 µM, first compound 10 µM) was 13.8%. The viability, T/C [13] was 22.7%, the viability, T/C [14] was 15.2% and the viability, T/C [15] was 11.2%. For the same molecule, the viability, T/C [16] was 12.6%, the viability, T/C (second compound 1 µM, first compound 3.16 µM) was 13.1% and the viability, T/C (second compound 1 µM, first compound 10 µM) was 13.3%. For the same molecule, the viability, T/C [17] was 23.6%, the viability, T/C [18] was 19.6% and the viability, T/C [19] was 12%. It also gave a viability, T/C [20] of 10.3%, a viability, T/C (second compound 3.16 µM, first compound 3.16 µM) of 13.6% and a viability, T/C (second compound 3.16 µM, first compound 10 µM) of 13.9%. The viability, T/C [21] was 26.8%, the viability, T/C [22] was 20.3% and the viability, T/C [23] was 12.2%. The viability, T/C [24] was 12.6%, the viability, T/C (second compound 10 µM, first compound 3.16 µM) was 11.3% and the viability, T/C (second compound 10 µM, first compound 10 µM) was 12.2%.

Source: PubChem BioAssay AID1963843 (Molecular Pharmacology Branch, DTP, NCI, 2024)
